This passage reports Ki, inhibition and melting point results from patent publication US20060063766A1, “Use of aryl- and heteroaryl-substituted tetrahydroisoquinolines to block reuptake of norepinephrine, dopamine, and serotonin” (priority 2004, published 2006).

The structures appear in SMILES notation. Where a name gives a salt, the structure may show the parent alone. Some results are limits rather than exact numbers.

T1 sequence (Q01959 whole entry): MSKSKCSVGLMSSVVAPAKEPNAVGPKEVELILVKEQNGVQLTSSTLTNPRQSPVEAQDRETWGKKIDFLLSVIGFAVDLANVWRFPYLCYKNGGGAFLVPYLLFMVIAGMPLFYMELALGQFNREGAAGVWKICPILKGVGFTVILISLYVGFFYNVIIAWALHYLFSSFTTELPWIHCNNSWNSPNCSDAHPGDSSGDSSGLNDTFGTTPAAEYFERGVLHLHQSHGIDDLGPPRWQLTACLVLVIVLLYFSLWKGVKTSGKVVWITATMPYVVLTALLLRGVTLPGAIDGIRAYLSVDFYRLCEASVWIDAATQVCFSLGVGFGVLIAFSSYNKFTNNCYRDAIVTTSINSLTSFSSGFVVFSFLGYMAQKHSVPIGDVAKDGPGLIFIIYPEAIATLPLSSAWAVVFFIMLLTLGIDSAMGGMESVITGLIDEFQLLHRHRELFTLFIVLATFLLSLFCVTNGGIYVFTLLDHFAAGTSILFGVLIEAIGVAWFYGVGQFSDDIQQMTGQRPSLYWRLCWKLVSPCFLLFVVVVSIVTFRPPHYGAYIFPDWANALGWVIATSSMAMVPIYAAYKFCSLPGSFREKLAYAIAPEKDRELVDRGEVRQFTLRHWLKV

The first data set deals with SERT (Homo sapiens, UniProt P31645). The experiment in a line: biochemical.
Sequence of SERT (P31645 whole entry): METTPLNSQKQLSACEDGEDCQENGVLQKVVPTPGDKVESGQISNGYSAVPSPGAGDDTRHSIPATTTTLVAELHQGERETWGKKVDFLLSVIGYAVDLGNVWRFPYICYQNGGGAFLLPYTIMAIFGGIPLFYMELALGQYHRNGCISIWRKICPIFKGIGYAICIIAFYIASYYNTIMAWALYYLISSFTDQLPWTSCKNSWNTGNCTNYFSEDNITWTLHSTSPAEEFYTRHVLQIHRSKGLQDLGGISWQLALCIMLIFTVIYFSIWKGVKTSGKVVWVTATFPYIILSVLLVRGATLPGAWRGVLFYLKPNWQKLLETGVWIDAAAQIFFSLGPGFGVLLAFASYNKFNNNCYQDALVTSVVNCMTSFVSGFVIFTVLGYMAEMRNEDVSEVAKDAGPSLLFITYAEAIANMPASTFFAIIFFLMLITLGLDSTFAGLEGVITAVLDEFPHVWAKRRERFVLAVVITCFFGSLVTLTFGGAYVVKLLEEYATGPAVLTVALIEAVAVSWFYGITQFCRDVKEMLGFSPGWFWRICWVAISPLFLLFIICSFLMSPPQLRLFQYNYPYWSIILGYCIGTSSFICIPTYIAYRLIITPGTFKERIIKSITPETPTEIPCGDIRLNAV
Conditions: not given
Regarding `Cc1noc(C)c1C1CN(C)Cc2ccccc21` (racemic) [4-(3,5-dimethyl-isoxazol-4-yl, reference compound], the Ki (usually a measure of affinity in units of concentration, obtained from inhibition or displacement) amounted to 1400 nM.
The same measure, in the same setting: the same measure for `Cc1noc(C)c1-c1ccc2c(c1)CN(C)CC2c1ccc2ccccc2c1` (racemic) [Example 142, (±)-7-(3,5-dimethyl-isoxazol-4-yl)-2-methyl-4-napthalen-2-yl-1,2,3,4-tetrahydroisoquinoline, maleate salt]: 5.2 nM.
Same read-out and setting: the same measure for `CCN1Cc2ccccc2C(c2ccc3cn[nH]c3c2)C1` (single isomer, unassigned; (+)) [Example 130, (+)-4-(1H-Indazol-6-yl)-2-ethyl-1,2,3,4-tetrahydroisoquinoline, maleate salt]: 22.5 nM; for `COc1cccc2cc(C3CN(C)Cc4ccccc43)oc12` (single isomer, unassigned) [Example 11]: 26.8 nM.
Still for that read-out and setting: the same measure for `COc1c(C2CN(C)Cc3ccccc32)ccc2sccc12` (single isomer, unassigned) [Example 82]: 4.3 nM; for `Cc1cccc2c1C(c1ccc3ccccc3c1)CN(C)C2` (centres unmarked) [Example 56, 2,5-dimethyl-4-(naphthalen-2-yl)-1,2,3,4-tetrahydroisoquinoline]: 3.4 nM.

The data set is the same for the next values; noted with them: read-out: % inhibition at 100 nM concentration of test compound, SERT.
Turning to `CN1Cc2cc(-c3cnccn3)ccc2C(c2cc3ccccc3s2)C1` (racemic) [Example 71, (±)-4-(benzo[b]thiophen-2-yl)-2-methyl-7-(pyrazin-2-yl)-1,2,3,4-tetrahydroisoquinoline], the inhibition at 0.1 µM was determined as 91%.

Test system in a further data set: not given
Experiment: not given
Conditions: not given
For the compound `COc1cccc2c1CN(C)CC2c1ccc2sccc2c1` (racemic) (as salt: fumarate), the melting point (usually the temperature, or range, at which the solid turns liquid) lay in the range of 197 to 199 °C.
The same measure, in the same setting: the same measure for `CCN1Cc2ccccc2C(c2ccc3sccc3c2OC)C1` (centres unmarked) (as salt: fumarate): 91 to 92 °C; for `Cc1cccc2c1CN(C)CC2c1ccc2ccccc2c1` (centres unmarked) (as salt: hydrochloride): 210 to 214 °C; for `CCN1Cc2ccccc2C(c2ccc3sccc3c2O)C1` (stereo not drawn) (as salt: fumarate) [Example 89 (−)]: 155 to 157 °C.
On the same count and under the same terms, the same measure for `CN1Cc2c(cccc2N2CCOCC2)C(c2ccc3sccc3c2)C1.O=C(O)/C=C/C(=O)O` (racemic): 148 to 153 °C; for `Cc1noc(C)c1-c1ccc2c(c1)CN(C)CC2c1ccc2ccccc2c1` (racemic) (as salt: maleate) [Example 142, (±)-7-(3,5-dimethyl-isoxazol-4-yl)-2-methyl-4-napthalen-2-yl-1,2,3,4-tetrahydroisoquinoline, maleate salt]: 88 to 90 °C.
Same read-out and setting: the same measure for `CN1Cc2cc(-c3cccnn3)ccc2C(c2ccc3ccccc3c2)C1` (single isomer, unassigned; (+)) (as salt: maleate) [Example 137, (+)-2-methyl-4-napthalen-2-yl-7-pyridazin-3-yl-1,2,3,4-tetrahydroisoquinoline, maleate salt]: 86 to 88 °C; for `CN1Cc2cc(C#N)ccc2C(c2cc3ccccc3s2)C1` (stereo not drawn) (as salt: maleate) [Example 79 (+)]: 91 to 94 °C.
On to `CN1Cc2ccccc2C(c2ccc3[nH]ncc3c2)C1` (centres unmarked), for which the melting point is 167 to 169 °C.
Still for that read-out and setting: the same measure for `COc1c(O)ccc2c1CN(C)CC2c1ccc2ccccc2c1.O=C(O)/C=C\C(=O)O` (centres unmarked): 85 to 90 °C.
The same measure, in the same setting: the same measure for `CN1Cc2cc(-c3cccnn3)ccc2C(c2ccc3sccc3c2)C1` (single isomer, unassigned; (+)) (as salt: fumarate) [Example 97, (+)-4-benzo[b]thiophen-5-yl-2-methyl-7-pyridazin-3-yl-1,2,3,4-tetrahydroisoquinoline]: 122 to 124 °C; for `CN1Cc2ccccc2C(c2ccc3sccc3c2O)C1` (stereo not drawn) (as salt: fumarate) [Example 88 (−)]: 214 to 216 °C; for `CN1Cc2cc(C#N)ccc2C(c2cc3ccccc3s2)C1` (stereo not drawn) (as salt: maleate) [Example 79 (−)]: 80 to 84 °C.
The same measure, in the same setting: the same measure for `CN1Cc2ccccc2C(c2ccc3sccc3c2O)C1` (stereo not drawn) (as salt: fumarate) [Example 88 (+)]: 213 to 215 °C; for `CN1Cc2cc(N3CCOCC3)ccc2C(c2cc3ccccc3s2)C1` (centres unmarked) (as salt: maleate): 142 to 145 °C; for `CN1Cc2cc(N3CCCC3)ccc2C(c2cc3ccccc3s2)C1` (racemic) (as salt: maleate): 105 to 108 °C.
In turn, `COc1c(C2CN(C)Cc3ccccc32)ccc2sccc12` (stereo not drawn) (as salt: fumarate) [82 (+)] had a melting point of 97 to 99 °C.
On the same count and under the same terms, the same measure for `COc1c(C2CN(C)Cc3ccccc32)ccc2sccc12` (stereo not drawn) (as salt: fumarate) [Example 82 (−)]: 94 to 96 °C.
Still for that read-out and setting: the same measure for `CCN1Cc2ccccc2C(c2ccc3sccc3c2O)C1` (stereo not drawn) (as salt: fumarate) [Example 89 (+)]: 158 to 159 °C; for `CN1Cc2cc(-c3cccnn3)ccc2C(c2cc3ccccc3s2)C1` (centres unmarked) (as salt: maleate): 99 to 102 °C.
In turn, `CN1Cc2ccccc2C(c2ccc3c(cnn3Cc3cccc(C#N)c3)c2)C1.O=C(O)/C=C\C(=O)O` (centres unmarked) had a melting point of 83 to 88 °C.
Same read-out and setting: the same measure for `CN1Cc2ccccc2C(c2nc3ccccc3s2)C1.O=C(O)/C=C\C(=O)O` (racemic): 165 to 170 °C; for `CN1Cc2cc(-c3cccnn3)ccc2C(c2cccc3sccc23)C1` (racemic) (as salt: maleate): 94 to 97 °C.
`CN1Cc2cc(-c3ncccn3)ccc2C(c2cc3ccccc3s2)C1` (racemic) (as salt: maleate): the melting point was 103 to 106 °C.
Same read-out and setting: the same measure for `CN(C)Cc1ccc2c(c1)CN(C)CC2c1ccc2sccc2c1` (racemic) (as salt: fumarate): 123 to 125 °C; for `CN1Cc2ccccc2C(c2nc3ccccc3o2)C1.O=C(O)/C=C\C(=O)O` (racemic): 135 to 140 °C; for `CN1Cc2ccccc2C(c2ccc3[nH]ncc3c2)C1.O=C(O)/C=C/C(=O)O` (centres unmarked): 83 to 88 °C.
The same measure, in the same setting: the same measure for `CN1Cc2ccccc2C(c2ccc3c(Cl)c[nH]c3c2)C1` (racemic) (as salt: maleate): 94 to 98 °C; for `CN1Cc2cc(-c3ncccn3)ccc2C(c2ccc3ccccc3c2)C1.O=C(O)/C=C\C(=O)O` (stereo not drawn) [Example 140 (−)-enantiomer]: 86 to 88 °C; for `Cc1noc(C)c1-c1ccc2c(c1)CN(C)CC2c1cc2ccccc2s1` (racemic) (as salt: maleate): 92 to 95 °C.
The same measure, in the same setting: the same measure for `CN1Cc2ccccc2C(c2ccc3sncc3c2)C1.O=C(O)/C=C\C(=O)O` (stereo not drawn) [Example 135 (−)-enantiomer]: 127 to 129 °C; for `CN1Cc2cc(C#N)ccc2C(c2ccc3sccc3c2)C1` (centres unmarked) (as salt: fumarate): 112 to 114 °C; for `CC1c2ccccc2C(c2ccc3sccc3c2)CN1C` (racemic) (as salt: fumarate): 179 to 181 °C.
`CN1Cc2ccccc2C(c2ccc3c(ccn3Cc3ccccc3)c2)C1` (racemic) (as salt: maleate) had a melting point of 81 to 85 °C.
On the same count and under the same terms, the same measure for `COc1c(C2CN(C)Cc3ccccc32)ccc2ccsc12` (centres unmarked) (as salt: fumarate): 98 to 99 °C; for `CN1Cc2cc(CN3CCOCC3)ccc2C(c2cc3ccccc3s2)C1` (single isomer, unassigned) (as salt: maleate): 80 to 82 °C; for `CN1Cc2ccccc2C(c2cccc3ccsc23)C1` (racemic) (as salt: salt): 228 to 230 °C.
Same read-out and setting: the same measure for `CN1Cc2cc(-c3ncccn3)ccc2C(c2ccc3ccccc3c2)C1.O=C(O)/C=C\C(=O)O` (centres unmarked) [Example 140]: 84 to 85 °C; for `CN1Cc2cc(-c3cncnc3)ccc2C(c2cc3ccccc3s2)C1` (racemic) (as salt: maleate) [Example 73, (±)-4-(benzo[b]thiophen-2-yl)-2-methyl-7-(pyrimidin-5-yl)-1,2,3,4-tetrahydroisoquinoline]: 103 to 107 °C; for `CN1Cc2ccccc2C(C2=Cc3ccccc3C2)C1` (centres unmarked) (as salt: maleate): 184 to 187 °C.
On the same count and under the same terms, the same measure for `CN1Cc2ccccc2C(c2ccc3cn[nH]c3c2)C1.O=C(O)/C=C/C(=O)O` (centres unmarked): 110 to 117 °C; for `CN1Cc2cc(-c3cnccn3)ccc2C(c2cc3ccccc3s2)C1` (racemic) (as salt: maleate) [Example 71, (±)-4-(benzo[b]thiophen-2-yl)-2-methyl-7-(pyrazin-2-yl)-1,2,3,4-tetrahydroisoquinoline]: 102 to 105 °C; for `CN1Cc2ccccc2C(c2cc(Cl)c3[nH]ncc3c2)C1` (single isomer, unassigned; (-)) (as salt: maleate) [Example 125, (−)-4-(7-chloro-1H-indazol-5-yl)-2-methyl-1,2,3,4-tetrahydoisoquinoline, maleate salt]: 104 to 110 °C.
Regarding `CN1Cc2cc(-c3ccc(N(C)C)nn3)ccc2C(c2ccc3sccc3c2)C1` (centres unmarked) (as salt: fumarate), the melting point was in the range of 116 to 119 °C.
Same read-out and setting: the same measure for `COc1c(-c2cccnn2)ccc2c1CN(C)CC2c1ccc2ccccc2c1.O=C(O)/C=C/C(=O)O` (racemic): 182 to 186 °C; for `CN1Cc2cc(N3CCOCC3)ccc2C(c2cccc3sccc23)C1` (racemic) (as salt: maleate): 103 to 107 °C.

The next data set has as its target T1, DAT (Homo sapiens, UniProt Q01959).
T1 construct: cDNAs containing the complete coding regions of each transporter were amplified by PCR from human brain libraries; expressed in transfected cells; host or cells: HEK293E
The data set can be described thus: biochemical. It is filed as binding.
Conditions: not given
The compound `Cc1noc(C)c1C1CN(C)Cc2ccccc21` (racemic) [4-(3,5-dimethyl-isoxazol-4-yl, reference compound] had a Ki of 128000 nM.
On the same count and under the same terms, the same measure for `Cc1noc(C)c1-c1ccc2c(c1)CN(C)CC2c1ccc2ccccc2c1` (racemic) [Example 142, (±)-7-(3,5-dimethyl-isoxazol-4-yl)-2-methyl-4-napthalen-2-yl-1,2,3,4-tetrahydroisoquinoline, maleate salt]: 104 nM; for `CCN1Cc2ccccc2C(c2ccc3cn[nH]c3c2)C1` (single isomer, unassigned; (+)) [Example 130, (+)-4-(1H-Indazol-6-yl)-2-ethyl-1,2,3,4-tetrahydroisoquinoline, maleate salt]: 105 nM; for `COc1cccc2cc(C3CN(C)Cc4ccccc43)oc12` (single isomer, unassigned) [Example 11]: over 300 nM.
Same read-out and setting: the same measure for `COc1c(C2CN(C)Cc3ccccc32)ccc2sccc12` (single isomer, unassigned) [Example 82]: over 1000 nM.

Staying with this data set, now noted: read-out: % inhibition at 100 nM concentration of test compound, DAT.
`CN1Cc2cc(-c3cnccn3)ccc2C(c2cc3ccccc3s2)C1` (racemic) [Example 71, (±)-4-(benzo[b]thiophen-2-yl)-2-methyl-7-(pyrazin-2-yl)-1,2,3,4-tetrahydroisoquinoline]: the inhibition at 0.1 µM came to 33%.
